Laboratory results: ChEMBL document CHEMBL5247654 (J Med Chem, 2023)
Active and inactive are the calls of the source. The rule behind the calls is not given here.

Key:
[1] = molecular target: T1, Glycogen synthase kinase-3 beta (Homo sapiens, UniProt P49841); conditions: dose 500.0 nM
Target sequence in this assay (P49841 whole entry, looked up, the tested form may be a part): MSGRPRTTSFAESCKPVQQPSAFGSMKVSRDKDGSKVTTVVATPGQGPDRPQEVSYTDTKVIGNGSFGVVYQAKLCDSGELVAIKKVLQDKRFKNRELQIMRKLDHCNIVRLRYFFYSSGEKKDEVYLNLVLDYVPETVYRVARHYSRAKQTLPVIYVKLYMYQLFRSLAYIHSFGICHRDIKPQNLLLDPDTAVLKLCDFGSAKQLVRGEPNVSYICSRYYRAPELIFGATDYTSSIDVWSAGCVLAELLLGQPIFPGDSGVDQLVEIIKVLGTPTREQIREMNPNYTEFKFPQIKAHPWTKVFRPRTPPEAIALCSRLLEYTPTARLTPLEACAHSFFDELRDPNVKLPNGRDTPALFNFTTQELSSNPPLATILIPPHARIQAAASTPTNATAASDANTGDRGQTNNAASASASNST

[2] = molecular target: T2, Dual specificity tyrosine-phosphorylation-regulated kinase 1A (Homo sapiens, UniProt Q13627); assay: Inhibition of human C-terminal his tagged DYRK1A (26 to 490 residues) transfected in HEK293T cells assessed as inhibition of cyclin D1 phosphorylation at 10 uM incubated for 3 hrs by Western blot analysis; format: cell-based
[3] = molecular target: T1, Glycogen synthase kinase-3 beta; assay: Inhibition of human C-terminal his tagged GSK3beta (26 to 383 residues) transfected in HEK293T cells assessed as inhibition of cyclin D1 phosphorylation at 10 uM incubated for 3 hrs by Western blot analysis; format: cell-based
Target sequence in this assay (P49841 whole entry, looked up, the tested form may be a part): as above

[4] = molecular target: T1, Glycogen synthase kinase-3 beta; assay: Inhibition human C-terminal his tagged m-Cherry GSK3beta (26 to 383 residues) in HEK293T cells assessed as reversal of ionomycin stimulated NFAT cellular localization at 5 uM incubated for 3 hrs followed by ionomycin stimulation for 1 hr by Hoechst 33258 staining based fluorescence microscopic analysis; format: cell-based; conditions: time 4.0 hrs
Target sequence in this assay (P49841 whole entry, looked up, the tested form may be a part): as above

[5] = molecular target: T2, Dual specificity tyrosine-phosphorylation-regulated kinase 1A; assay: Binding affinity to human C-terminal his tagged DYRK1A (26 to 490 residues) expressed in Escherichia coli at 100 uM by radiometric analysis
[6] = molecular target: T2, Dual specificity tyrosine-phosphorylation-regulated kinase 1A; assay: Inhibition of human C-terminal his tagged DYRK1A (26 to 490 residues) expressed in Escherichia coli using DYRKtide (RRRFRPASPLRGPPK) as peptide substrate incubated for 1 hr in presence of ATP by cook activity assay
[7] = molecular target: T1, Glycogen synthase kinase-3 beta; assay: Inhibition of human C-terminal his tagged GSK3beta (26 to 383 residues) expressed in Escherichia coli using GYSI(YRRAAVPPSPSLSRHSSPHQ(pS)EDEEE) as peptide substrate incubated for 1 hr in presence of ATP by cook activity assay
Target sequence in this assay (P49841 whole entry, the tested form may be a part): as the sequence (P49841 whole entry, looked up, the tested form may be a part) above

[8] = molecular target: T1, Glycogen synthase kinase-3 beta; assay: Stabilization of human C-terminal his tagged GSK3beta (26 to 383 residues) expressed in Escherichia coli assessed as change in melting temperature at 10 uM by SYPRO orange dye based thermal shift assay
Target sequence in this assay (P49841 whole entry, looked up, the tested form may be a part): as the sequence (P49841 whole entry, looked up, the tested form may be a part) above

Structure (SMILES) | inhibition [1] [%] | inhibition [2] | inhibition [3] | inhibition [4] | Activity [5] | IC50 [6] | IC50 [7] | Tm [8]
O=C(O)c1ccc2c(c1)nc(Nc1cccc(Cl)c1)c1ccncc12 | 50 | 100% | 100% | Active | – | – | – | –
O=C1Cc2c([nH]c3ccc(Br)cc23)-c2ncccc2N1 [AZAKENPAULLONE] | – | Active | Active | Active | inactive | Not Active | – | –
COc1ccc2c(c1)[nH]c1c(C)nccc12 [HARMINE] | – | Active | Active | – | – | – | Not Active | inactive
